According to ChEMBL document CHEMBL1157873, “Synthesis and biological activity of Delta-5,6-norcantharimides: importance of the 5,6-bridge” (Eur J Med Chem, 2010):

Legend:
[1] = Cytotoxicity against human BE(2)-C cells at 100 uM after 72 hrs by MTT assay; type: functional
MCF7 [2] = experiment: Cytotoxicity against human MCF7 cells at 100 uM after 72 hrs by MTT assay; type: functional; settings: MCF7, 72 h
A2780 [3] = experiment: Cytotoxicity against human A2780 cells at 100 uM after 72 hrs by MTT assay; type: functional; settings: A2780, 72 h
A-431 [4] = experiment: Cytotoxicity against human A431 cells at 100 uM after 72 hrs by MTT assay; type: functional; settings: A-431, 72 h
HT-29 [5] = experiment: Cytotoxicity against human HT-29 cells at 100 uM after 72 hrs by MTT assay; type: functional; settings: HT-29, 72 h
[6] = Cytotoxicity against human SJ-G2 cells at 100 uM after 72 hrs by MTT assay; type: functional; settings: SJ-G2, 72 h
DU-145 [7] = experiment: Cytotoxicity against human DU145 cells at 100 uM after 72 hrs by MTT assay; type: functional; settings: DU-145, 72 h
NCI-H460 [8] = experiment: Cytotoxicity against human H460 cells at 100 uM after 72 hrs by MTT assay; type: functional; settings: NCI-H460, 72 h
SW480 [9] = experiment: Cytotoxicity against human SW480 cells at 100 uM after 72 hrs by MTT assay; type: functional; settings: SW480, 72 h
[10] = Solubility of the compound; type: physicochemical
[11] = Cytotoxicity against human BE(2)-C cells after 72 hrs by MTT assay; type: functional
[12] = Inhibition of rabbit skeletal muscle protein phosphatase 1 assessed as free phosphate ion release after 60 mins by malachite green method; parameters: species or system Oryctolagus cuniculus
A-431 [13] = experiment: Cytotoxicity against human A431 cells after 72 hrs by MTT assay; type: functional; settings: A-431, 72 h
A2780 [14] = experiment: Cytotoxicity against human A2780 cells after 72 hrs by MTT assay; type: functional; settings: A2780, 72 h
HT-29 [15] = experiment: Cytotoxicity against human HT-29 cells after 72 hrs by MTT assay; type: functional; settings: HT-29, 72 h
DU-145 [16] = experiment: Cytotoxicity against human DU145 cells after 72 hrs by MTT assay; type: functional; settings: DU-145, 72 h
[17] = Cytotoxicity against human SJ-G2 cells after 72 hrs by MTT assay; type: functional; settings: SJ-G2, 72 h
SW480 [18] = experiment: Cytotoxicity against human SW480 cells after 72 hrs by MTT assay; type: functional; settings: SW480, 72 h
NCI-H460 [19] = experiment: Cytotoxicity against human H460 cells after 72 hrs by MTT assay; type: functional; settings: NCI-H460, 72 h
MCF7 [20] = experiment: Cytotoxicity against human MCF7 cells after 72 hrs by MTT assay; type: functional; settings: MCF7, 72 h
[21] = Inhibition of human red blood cells protein phosphatase 2A assessed as free phosphate ion release after 60 mins by malachite green method

Structure (SMILES) | inhibition at 100 µM [1] [%] | inhibition at 100 µM (MCF7 [2]) [%] | inhibition at 100 µM (A2780 [3]) [%] | inhibition at 100 µM (A-431 [4]) [%] | inhibition at 100 µM (HT-29 [5]) [%] | inhibition at 100 µM [6] [%] | inhibition at 100 µM (DU-145 [7]) [%] | inhibition at 100 µM (NCI-H460 [8]) [%] | inhibition at 100 µM (SW480 [9]) [%] | also measured
NCCC[C@@H](C(=O)O)N1C(=O)[C@H]2CNC[C@H]2C1=O | 23 | 22 | 11 | 16 | 12 | < 10 | < 10 | 16 | 11 | 
CCCN1C(=O)[C@H]2CNC[C@H]2C1=O |  |  |  |  |  |  |  |  |  | solubility [10]: Insoluble
CC(CO)N1C(=O)[C@H]2CNC[C@H]2C1=O (stereo not given in full) | < 10 | < 10 | < 10 | < 10 | 15 | < 10 | < 10 | < 10 | < 10 | 
O=C(O)[C@H](Cc1c[nH]cn1)N1C(=O)[C@H]2COC[C@H]2C1=O | 22 | 20 | 23 | 26 | 26 | 15 | 11 | 21 | 18 | 
CCC(CO)N1C(=O)[C@H]2CSC[C@H]2C1=O (stereo not given in full) | < 10 | < 10 | < 10 | < 10 | < 10 | < 10 | < 10 | < 10 | < 10 | 
CCC(CO)N1C(=O)[C@H]2CNC[C@H]2C1=O (stereo not given in full) | < 10 | < 10 | < 10 | < 10 | < 10 | < 10 | < 10 | < 10 | < 10 | 
CCOC(=O)C[C@@H](C(=O)OCC)N1C(=O)[C@H]2CNC[C@H]2C1=O | < 10 | 15 | 14 | < 10 | 15 | < 10 | < 10 | < 10 | < 10 | 
O=C1[C@H]2COC[C@H]2C(=O)N1CCN1CCOCC1 | < 10 | < 10 | 13 | < 10 | < 10 | < 10 | < 10 | < 10 | < 10 | 
O=C1[C@H]2CN(Cc3ccccc3)C[C@H]2C(=O)N1CCN1CCOCC1 | 12 | 51 | 33 | 11 | 45 | 25 | 25 | < 10 | 49 | 
O=C(O)[C@H](Cc1c[nH]cn1)N1C(=O)[C@H]2CNC[C@H]2C1=O | < 10 | < 10 | < 10 | < 10 | 10 | < 10 | < 10 | < 10 | < 10 | 
NCC[C@@H](C(=O)O)N1C(=O)[C@H]2CNC[C@H]2C1=O | < 10 | < 10 | < 10 | < 10 | < 10 | < 10 | < 10 | < 10 | < 10 | 
CC(CO)N1C(=O)[C@H]2COC[C@H]2C1=O (stereo not given in full) | < 10 | < 10 | 13 | < 10 | < 10 | < 10 | < 10 | 10 | < 10 | 
O=C(O)[C@H](Cc1c[nH]cn1)N1C(=O)[C@H]2CSC[C@H]2C1=O | 14 | 15 | < 10 | < 10 | 10 | < 10 | < 10 | 10 | < 10 | 
C[C@@]12C(=O)OC(=O)[C@]1(C)[C@H]1CC[C@@H]2O1 [CANTHARIDIN] |  |  |  |  |  |  |  |  |  | GI50 [11]: 3.7 µM; IC50 [12]: 6 µM; GI50 (A-431 [13]): 2.9 µM; GI50 (A2780 [14]): 4.4 µM; GI50 (HT-29 [15]): 3.2 µM; GI50 (DU-145 [16]): 2.1 µM; GI50 [17]: 1.7 µM; GI50 (SW480 [18]): 4.5 µM; GI50 (NCI-H460 [19]): 3.3 µM; GI50 (MCF7 [20]): 7.5 µM; IC50 [21]: 0.9 µM
